Reference: publication PMC8092876, “A Leucyl-tRNA Synthetase Inhibitor with Broad-Spectrum Antimycobacterial Activity” (Antimicrobial Agents and Chemotherapy, 2021)
Values after ≈ are worked out from the molar mass of the structure shown. Like-named read-outs stand apart in the source and are kept apart here.

How the values were obtained:
M. avium 11 = test: MIC assay in 96-well plate format; format: cell-based, M. avium subsp. hominissuis; settings: Mycobacterium avium, 96 h; M. avium 11, 7H9, 4 days; read-out: MIC
[1] = system: M. abscessus subsp. abscessus M337; test: MIC assay in 96-well plate format; format: cell-based; settings: Mycobacteroides abscessus; M. abscessus subsp. abscessus M337, clinical isolate
[2] = system: M. abscessus subsp. bolletii M232; test: MIC assay in 96-well plate format; format: cell-based; settings: Mycobacteroides abscessus; M. abscessus subsp. bolletii M232, clinical isolate
ChromlogD assay = format: physicochemical; settings: reversed phase HPLC column (Gemini NX C18), pH 7.4
Method: The Chromatographic Hydrophobicity Index (CHI) values are measured using reversed phase high-performance liquid chromatography (HPLC) column (50 by 2 mm […] Gemini NX C18, Phenomenex, UK) with fast acetonitrile gradient at starting mobile phase of pHs 2, 7.4, and 10.5. CHI values are derived directly from the gradient retention times by using a calibration line obtained for standard compounds. The CHI value approximates to the volume percent organic concentration when the compound elutes. CHI is linearly transformed into ChromlogD by least-square fitting of experimental CHI values to calculated ClogP values for over 20,000 research compounds using the following formula: ChromlogD = (0.0857 × CHI) − 2.00. The average error of the assay is ±3 CHI unit or ±0.25 ChromlogD.

[3] = Mouse pharmacokinetics, oral administration; format: in vivo; settings: for AUC: female, C57BL/6, whole blood
Method: For pharmacokinetic studies, CD-1 male mice (22 to 25 g) were used for intravenous route and C57BL/6 female mice (18 to 20 g) were used for oral route. All animal studies were ethically reviewed and carried out in accordance with European Directive 2010/63/EU and the GSK policy on the care, welfare, and treatment of animals.
EC/11770 was administered by intravenous route at 1 mg/kg single dose in saline and by oral gavage at 1 mg/kg and 10 mg/kg single doses in 1% methyl cellulose (1% MC). Aliquots of 20 μl of blood were taken from the lateral tail vein by puncture from each mouse (n = 3 per route and dose) at 5, 15, and 30 min 1, 2, 4, 6, 8, and 24 h postdose for intravenous route and at 15, 30, and 45 min 1, 2, 4, 6, 8, and 24 h postdose for oral route. The blood aliquots were mixed with 40 μl of water and stored at −80°C prior to analysis. The samples were processed by protein precipitation: aliquots of 20 μl were mixed with acetonitrile/methanol (80:20 vol/vol) and then filtered in 0.45 μm well-plates (hydrophobic polytetrafluorethylene [PTFE], Millipore). The filtrates were analyzed by UPLC-MS/MS for the establishment of compound concentration. The ultraperformance liquid chromatography (UPLC)-MS/MS system included a UPLC Acquity (Waters) and an API4000 mass spec. (AB Sciex). A volume of 7.5 μl of sample was injected into the system, with an UPLC solvent gradient of 2 min and with a positive multiple reaction monitoring (MRM) mass detection mode.
Pharmacokinetic analysis was performed by noncompartmental data analysis (NCA) with Phoenix WinNonlin 6.3 (Pharsight, Certara L.P), and supplementary analysis was performed with GraphPad Prism 6 (GraphPad Software, Inc.).

[4] = mouse, oral 10 mg/kg, average (SD)

In the case of `CC(C)(O)COc1ccc(Br)c2c1B(O)O[C@@H]2CN` [EC/11770], the MIC (M. avium 11) is reported as 4 µM (≈ 1.32 µg/mL), the MIC [1] is reported as 0.5 µM (≈ 0.165 µg/mL) and the MIC [2] is reported as 0.67 µM (≈ 0.221 µg/mL). The chromatographic logD (ChromlogD assay) was 0.97, the AUC ([3]; mouse, oral 1 mg/kg, average (SD), read-out: AUC0–24_1 mg/kg) was 3560 ng·h/mL and the AUC ([3]; mouse, oral 10 mg/kg, average (SD), read-out: AUC0–24_10 mg/kg) was 40500 ng·h/mL. For the same compound, the Cmax_1 mg/kg ([3]; mouse (C57BL/6 female), oral 1 mg/kg, average (SD)) was 341 (51) ng/ml, the “%F_1 mg/kg” value ([3]; mouse, oral 1 mg/kg) was 100% and the “DNAUC0–24_1 mg/kg” value ([3]; mouse, oral 1 mg/kg, average (SD)) was 3,556 (179) ng h/ml per mg/kg. The Tmax_1 mg/kg ([3]; mouse, oral 1 mg/kg, range of values) was 1.0−2.0 h, the “%F_10 mg/kg” value ([3]; mouse, oral 10 mg/kg) was 100% and the “time above M. abscessus biofilm MIC” value ([3]; mouse, oral 10 mg/kg) was “approximately 60%”. The “time above MIC in M. abscessus planktonic cultures” value ([3]; mouse, oral 10 mg/kg) was 100%, the Cmax_10 mg/kg [3, 4] was 4,393 (1,260) ng/ml and the “DNAUC0–24_10 mg/kg” value [3, 4] was 4,053 (908) ng h/ml per mg/kg. For the same compound, the Tmax_10 mg/kg ([3]; mouse, oral 10 mg/kg, range of values) was 0.75−2.0 h.
